Assay results reported in patent publication US7041683B2 (Wyeth, priority 2001, dated 2006).
Counter-ions that a name gives are not always drawn. Like-named read-outs stand apart in the source and are kept apart here.

Columns and labels:
serotonin transporter = target: T1, serotonin transporter (Rattus norvegicus, UniProt P31652); experiment: 3H-paroxetine displacement from male rat frontal cortical membranes (serotonin transporter affinity); assay type: binding
T1 construct: displace ^3H-paroxetine from male rat frontal cortical membranes; from tissue; host or cells: male rat frontal cortex membranes

human 5-HT1A receptors = target: T2, human 5-HT1A receptors (Homo sapiens, UniProt P08908); experiment: [3H] 8-OHDPAT displacement from 5-HT1A receptor in stably transfected CHO cells; assay type: binding
T2 construct: expressed in transfected cells; host or cells: CHO cells
T2 sequence (P08908 1-422): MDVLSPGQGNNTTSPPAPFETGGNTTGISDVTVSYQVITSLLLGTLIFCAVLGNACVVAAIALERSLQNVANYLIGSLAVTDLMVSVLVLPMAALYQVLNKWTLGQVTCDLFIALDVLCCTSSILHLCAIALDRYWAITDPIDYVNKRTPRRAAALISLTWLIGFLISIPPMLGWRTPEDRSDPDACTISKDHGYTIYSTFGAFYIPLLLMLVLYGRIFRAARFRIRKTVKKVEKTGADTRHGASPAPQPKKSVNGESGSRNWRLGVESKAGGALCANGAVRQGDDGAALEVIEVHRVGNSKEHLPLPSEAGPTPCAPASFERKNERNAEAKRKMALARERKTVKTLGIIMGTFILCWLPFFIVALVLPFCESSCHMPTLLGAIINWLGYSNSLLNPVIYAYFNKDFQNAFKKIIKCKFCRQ
Source text: High affinity for the serotonin 5-HT1A receptor was established by testing the claimed compound's ability to displace [^3H] 8-OHDPAT (dipropylaminotetralin) from the 5-HT1A serotonin receptor following a modification of the procedure of Hall et al., J. Neurochem. 44, 1685 (1985) which utilizes CHO cells stably transfected with human 5-HT1A receptors.

[1] = target: T3, cloned human 5-HT1A receptors (Homo sapiens, UniProt P08908); experiment: 35S-GTPγS binding assay, antagonist activity at 5-HT1A receptors; assay type: biochemical; set-up: 5-HT1A Function Imax (maximum inhibitory effect): unit not given here
T3 construct: expressed in transfected cells
T3 sequence (P08908 1-422): T2 sequence (P08908 1-422)
Method: Antagonist activity at 5-HT1A receptors was established by using a ^35S-GTPγS binding assay similar to that used by Lazareno and Birdsall (Br. J. Pharmacol. 109: 1120, 1993), in which the test compound's ability to affect the binding of ^35S-GTPγS to membranes containing cloned human 5-HT1A receptors was determined. Agonists produce an increase in binding whereas antagonists produce no increase but rather reverse the effects of the standard agonist 8-OHDPAT. The test compound's maximum inhibitory effect is represented as the Imax, while its potency is defined by the IC50.

[2] = 35S-GTPγS binding, reversal of the effects of the standard agonist 8-OHDPAT
[3] = 35S-GTPγS binding, reversal of the effects of the standard agonist 8-OHDPAT, read-out: 5-HT1A Function IC50

T1 sequence (P31652 whole entry): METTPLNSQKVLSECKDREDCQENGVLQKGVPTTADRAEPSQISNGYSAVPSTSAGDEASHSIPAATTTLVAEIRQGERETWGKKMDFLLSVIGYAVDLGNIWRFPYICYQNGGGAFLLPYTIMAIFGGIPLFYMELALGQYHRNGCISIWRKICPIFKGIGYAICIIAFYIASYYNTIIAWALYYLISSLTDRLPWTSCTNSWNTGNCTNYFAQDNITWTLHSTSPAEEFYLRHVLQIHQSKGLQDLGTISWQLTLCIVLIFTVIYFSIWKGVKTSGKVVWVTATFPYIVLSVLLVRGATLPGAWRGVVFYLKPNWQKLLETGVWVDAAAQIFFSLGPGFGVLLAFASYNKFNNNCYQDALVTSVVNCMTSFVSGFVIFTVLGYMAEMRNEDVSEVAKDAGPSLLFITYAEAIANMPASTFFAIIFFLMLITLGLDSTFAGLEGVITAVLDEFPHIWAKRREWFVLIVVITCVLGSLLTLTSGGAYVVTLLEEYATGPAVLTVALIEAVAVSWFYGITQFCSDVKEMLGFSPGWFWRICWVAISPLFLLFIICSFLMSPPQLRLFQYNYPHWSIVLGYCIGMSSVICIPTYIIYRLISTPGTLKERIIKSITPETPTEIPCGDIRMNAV

With `Fc1ccc2[nH]cc(C3=CCN(CC4COc5ccccc5O4)CC3)c2c1` (centres unmarked) [Example 2, 5-Fluoro-3-[4-[1,2,3,6-tetrahydro-1-[2-(2,3-dihydro[1,4]benzodioxinyl)]methyl]pyridinyl]indole] the Ki (serotonin transporter) was 16 nM and the Ki (human 5-HT1A receptors) was 68.3 nM.

With `COc1cccc2c1O[C@@H](CN1CC=C(c3c[nH]c4ccc(F)cc34)CC1)CO2` [Example 14, 5-Fluoro-3-[1-(8-methoxy-2,3-dihydro-benzo[1,4]dioxin-2-ylmethyl)-1,2,3,6-tetrahydro-pyradin-4-yl]-1H-indole] the Ki (serotonin transporter) was 1.79 nM, the Ki (human 5-HT1A receptors) was 8.57 nM and the “5-HT1A Function Imax (maximum inhibitory effect)” value [1, 2] was “(100)”. The IC50 [1, 3] was 70 nM.

With `COc1ccc2c(c1)OC(CN1CC=C(c3c[nH]c4ccccc34)CC1)CO2` (centres unmarked) [Example 13, 3-(1-{[7-Methoxy-2,3-dihydro-1,4-benzodioxin-2-yl]methyl}-1,2,3,6-tetrahydropyridin-4-yl)-1H-indole] the Ki (serotonin transporter) was 40 nM, the Ki (human 5-HT1A receptors) was 17.3 nM and the “5-HT1A Function Imax (maximum inhibitory effect)” value [1, 2] was “(100)”. It also gave an IC50 [1, 3] of 522 nM and a melting point of 166 to 168 °C.

With `COc1cccc2c1OC(CN1CC=C(c3c[nH]c4cc(F)ccc34)CC1)CO2` (centres unmarked) [Example 9, 6-Fluoro-3-[1-(8-methoxy-2,3-dihydro-1,4-benzodioxin-2-ylmethyl)-1,2,3,6-tetrahydro-pyridin-4-yl]-1H-indole] the Ki (serotonin transporter) was 0.6 nM, the Ki (human 5-HT1A receptors) was 4.88 nM and the “5-HT1A Function Imax (maximum inhibitory effect)” value [1, 2] was “(80.0)”. The IC50 [1, 3] was 272 nM and the melting point was 184 to 185 °C.

For `COc1cccc2c1OC(CN1CC=C(c3c[nH]c4ccc(C#N)cc34)CC1)CO2` (centres unmarked) [Example 7, 3-[1-(8-Methoxy-2,3-dihydro-benzo[1,4]dioxin-2-ylmethyl)-1,2,3,6-tetrahydro-pyridin-4-yl]-1H-indole-5-carbonitrile], the Ki (serotonin transporter) was 1.04 nM, the Ki (human 5-HT1A receptors) was 7.95 nM and the “5-HT1A Function Imax (maximum inhibitory effect)” value [1, 2] was “(100)”. The IC50 [1, 3] was 82.5 nM.

For `Fc1cccc2c1OC(CN1CC=C(c3c[nH]c4ccccc34)CC1)CO2` (centres unmarked) [Example 12, 3-(1-{[8-Fluoro-2,3-dihydro-1,4-benzodioxin-2-yl]methyl}-1,2,3,6-tetrahydropyridin-4-yl)-1H-indole], the Ki (serotonin transporter) was 49 nM, the Ki (human 5-HT1A receptors) was 35.5 nM and the “5-HT1A Function Imax (maximum inhibitory effect)” value [1, 2] was “(76.0)”. It also gave an IC50 [1, 3] of 521 nM and a melting point of 174 to 177 °C.

With `COc1ccc2[nH]cc(C3=CCN(CC4COc5ccccc5O4)CC3)c2c1` (centres unmarked) (as salt: oxalate) [Example 1, 5-Methoxy-3-[4-[1,2,3,6-tetrahydro-1-[2-(2,3-dihydro[1,4]benzodioxinyl)]methyl]pyridinyl]indole] the melting point was 120 °C (dec.).

In the case of `COc1cccc2c1OC(CN1CC=C(c3c[nH]c4ccc(C#N)cc34)CC1)CO2` (centres unmarked) (as salt: hydrochloride) (hydrate or solvate) [Example 7, 3-[1-(8-Methoxy-2,3-dihydro-benzo[1,4]dioxin-2-ylmethyl)-1,2,3,6-tetrahydro-pyridin-4-yl]-1H-indole-5-carbonitrile], the melting point is reported as 235 to 238 °C.

For `COc1ccc2[nH]cc(C3=CCN(CC4COc5ccccc5O4)CC3)c2c1` (centres unmarked) [Example 1, 5-Methoxy-3-[4-[1,2,3,6-tetrahydro-1-[2-(2,3-dihydro[1,4]benzodioxinyl)]methyl]pyridinyl]indole], the Ki (human 5-HT1A receptors) was 27.2 nM.

In the case of `Nc1ccc2c(c1)O[C@@H](CN1CC=C(c3c[nH]c4ccccc34)CC1)CO2` (single isomer, unassigned) [Example 3], the Ki (serotonin transporter) is reported as 1.16 nM, the Ki (human 5-HT1A receptors) is reported as 31 nM and the IC50 [1] is reported as 232 nM. The “5-HT1A Function Imax (maximum inhibitory effect)” value [1, 2] was “(96.0)”.

In the case of `NC(=O)c1cccc2c1OC(CN1CC=C(c3c[nH]c4ccccc34)CC1)CO2` (centres unmarked) [Example 10, 3-[4-(1H-Indol-3-yl)-3,6-dihydro-2H-pyridin-1-ylmethyl]-2,3-dihydro-benzo[1,4]dioxine-5-carboxylic Acid Amide], the Ki (serotonin transporter) is reported as 4.96 nM, the Ki (human 5-HT1A receptors) is reported as 64.6 nM and the “5-HT1A Function Imax (maximum inhibitory effect)” value [1, 2] is reported as “(61.0)”. The IC50 [1, 3] was 1280 nM and the melting point was 175 to 178 °C.

`COc1cccc2c1OC(CN1CC=C(c3c[nH]c4ccccc34)CC1)CO2` (centres unmarked) (hydrate or solvate) [Example 5, 3-[1-(8-Methoxy-2,3-dihydro-benzo[1,4]dioxin-2-ylmethyl)-1,2,3,6-tetrahydro-pyridin-4-yl]-1H-indole] showed a melting point of 203 to 205 °C.

With `Nc1ccc2c(c1)OCC(CN1CC=C(c3c[nH]c4ccc(F)cc34)CC1)O2` (centres unmarked) [Example 6, 2-[4-(5-Fluoro-1H-indol-3-yl)-3,6-dihydro-2H-pyridin-1-ylmethyl]-2,3-dihydro-benzo[1,4]dioxin-6-ylamine] the Ki (serotonin transporter) was 0.34 nM, the Ki (human 5-HT1A receptors) was 46.7 nM and the “5-HT1A Function Imax (maximum inhibitory effect)” value [1, 2] was “(96.7)”. The IC50 [1, 3] was 411 nM and the melting point was 172 to 174 °C.

With `COc1cccc2c1O[C@@H](CN1CC=C(c3c[nH]c4ncccc34)CC1)CO2` [Example 8, 3-[1-(8-Methoxy-2,3-dihydro-benzo[1,4]dioxin-2-ylmethyl)-1,2,3,6-tetrahydro-pyridin-4-yl]-1H-pyrrole[2,3-b]pyridine] the Ki (serotonin transporter) was 39 nM, the Ki (human 5-HT1A receptors) was 4.3 nM and the “5-HT1A Function Imax (maximum inhibitory effect)” value [1, 2] was “(94.0)”. For the same compound, the IC50 [1, 3] was 26 nM and the melting point was 207 to 210 °C.

Work on `Nc1ccc2c(c1)OCC(CN1CC=C(c3c[nH]c4ccccc34)CC1)O2` (single isomer, unassigned) [Example 3, 3-[4-(1H-Indol-3-yl)-3,6-dihydro-2H-pyridin-1-ylmethyl]-2,3-dihydro-benzo[1,4]dioxin-7-ylamine] yielded a melting point of 204 to 206 °C.

For `COc1cccc2c1OC(CN1CC=C(c3c[nH]c4ccccc34)CC1)CO2` (centres unmarked) [Example 5, 3-[1-(8-Methoxy-2,3-dihydro-benzo[1,4]dioxin-2-ylmethyl)-1,2,3,6-tetrahydro-pyridin-4-yl]-1H-indole], the Ki (serotonin transporter) was 0.17 nM, the Ki (human 5-HT1A receptors) was 2.85 nM and the “5-HT1A Function Imax (maximum inhibitory effect)” value [1, 2] was “(89.3)”. For the same compound, the IC50 [1, 3] was 57.3 nM.

In the case of `NC(=O)c1cccc2c1OC(CN1CC=C(c3c[nH]c4ccc(F)cc34)CC1)CO2` (centres unmarked) [Example 11, 3-[4-(5-Fluoro-1H-indol-3-yl)-3,6-dihydro-2H-pyridin-1-ylmethyl]-2,3-dihydro-benzo[1,4]dioxine-5-carboxylic Acid Amide], the Ki (serotonin transporter) is reported as 3.13 nM, the Ki (human 5-HT1A receptors) is reported as 70.6 nM and the “5-HT1A Function Imax (maximum inhibitory effect)” value [1, 2] is reported as “(60.0)”. For the same compound, the IC50 [1, 3] was 736 nM and the melting point was 195 to 197 °C.

In the case of `Nc1ccc2c(c1)OCC(CN1CC=C(c3c[nH]c4ccccc34)CC1)O2` (centres unmarked) [Example 4, 2-[4-(1H-Indol-3-yl)-3,6-dihydro-2H-pyridin-1-ylmethyl]-2,3-dihydro-benzo[1,4]dioxin-6-ylamine], the Ki (serotonin transporter) is reported as 2.03 nM, the Ki (human 5-HT1A receptors; displacement of [3H] 8-OHDPAT, CHO cells stably transfected with human 5-HT1A receptors, read-out: 5-HT1A Receptor Affinity KI) is reported as 132 nM and the “5-HT1A Function Imax (maximum inhibitory effect)” value [1, 2] is reported as “(90.0)”. For the same compound, the IC50 [1, 3] was 240 nM and the melting point was 199 to 200 °C.

With `Fc1ccc2[nH]cc(C3=CCN(CC4COc5ccccc5O4)CC3)c2c1` (centres unmarked) (as salt: oxalate) [Example 2, 5-Fluoro-3-[4-[1,2,3,6-tetrahydro-1-[2-(2,3-dihydro[1,4]benzodioxinyl)]methyl]pyridinyl]indole] the melting point was 145 °C (dec.).

In the case of `COc1cccc2c1O[C@@H](CN1CC=C(c3c[nH]c4ccc(F)cc34)CC1)CO2` (as salt: oxalate) [Example 14, 5-Fluoro-3-[1-(8-methoxy-2,3-dihydro-benzo[1,4]dioxin-2-ylmethyl)-1,2,3,6-tetrahydro-pyradin-4-yl]-1H-indole], the melting point is reported as 154 to 156 °C.
